Laboratory results as given in US8703805B2 (Exelixis Patent Company LLC, priority 2005, dated 2014).

test system: LXRα and/or LXRβ; assay: LXR/LXRE co-transfection assay (luciferase reporter, CV-1 cells); assay type: cell-based, human; details: IC50 or EC50 for LXR (LXRα and/or LXRβ, not distinguished), tested as described in Example 109, CV-1 cells
How it was run: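 Luciferase readout after 20 h compound exposure at 37 °C in CV-1 cells transiently expressing human LXRα or LXRβ with RXRα and an LXRE-driven reporter. Dose-response over 8 points at ½-log spacing, 4 wells each, fitted for EC50/IC50; values average ≥3 independent experiments, efficacy as % of high control.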

EC50, < 1000 nM:
CC(C)(O)c1ccc(-c2ccc(-c3cc(C(F)(F)F)nn3-c3cc(Cl)ccc3Cl)s2)cc1S(C)(=O)=O [Example 1304, 2-[4-{5-[1-(2,5-dichlorophenyl)-3-(trifluoromethyl)-1H-pyrazol-5-yl]-2-thienyl}-2-(methylsulfonyl)phenyl]propan-2-ol]
CS(=O)(=O)c1cccc(-c2ccc(-c3cc(C(=O)N4CCCC4)nn3-c3ccccc3C(F)(F)F)s2)c1 [Example 1210, 5-{5-[3-(methylsulfonyl)phenyl]-2-thienyl}-3-(pyrrolidin-1-ylcarbonyl)-1-[2-(trifluoromethyl)phenyl]-1H-pyrazole]
CC(C)(O)c1cc(-c2ccc(-c3cccc(S(C)(=O)=O)c3)cc2)n(-c2ccccc2C(F)(F)F)n1 [Example 1201, 2-{5-[3′-(methylsulfonyl)biphenyl-4-yl]-1-[2-(trifluoromethyl)phenyl]-1H-pyrazol-3-yl}propan-2-ol]
CC(C)(O)c1cc(-c2ccc(-c3cccc(S(C)(=O)=O)c3)s2)n(-c2cccc(Cl)c2Cl)n1 [Example 1281, 2-[1-(2,3-dichlorophenyl)-5-{5-[3-(methylsulfonyl)phenyl]-2-thienyl}-1H-pyrazol-3-yl]propan-2-ol]
CC(C)(O)c1cccc(-c2ccc(-c3cc(C(F)(F)F)nn3-c3c(Cl)cccc3Cl)c(Cl)c2)c1 [Example 1395, 2-(3′-chloro-4′-(1-(2,6-dichlorophenyl)-3-(trifluoromethyl)-1H-pyrazol-5-yl)biphenyl-3-yl)propan-2-ol]
NS(=O)(=O)c1cccc(-c2ccc(-c3cc(C(F)(F)F)nn3-c3ccccc3Cl)cc2)c1 [Example 1137, 4′-[1-(2-chlorophenyl)-3-(trifluoromethyl)-1H-pyrazol-5-yl]biphenyl-3-sulfonamide]
CC(=O)c1cc(-c2ccccc2Cl)n(-c2ccc(-c3cccc(S(C)(=O)=O)c3)cc2)n1 [Example 1224, 1-{5-(2-chlorophenyl)-1-[3′-(methylsulfonyl)biphenyl-4-yl]-1H-pyrazol-3-yl}ethanone]
CC(C)(O)c1nn(-c2c(Cl)cncc2Cl)c(-c2ccc(-c3cccc(S(C)(=O)=O)c3)s2)c1Cl [Example 127, 2-(4-chloro-1-(3,5-dichloropyridin-4-yl)-5-(5-(3-(methylsulfonyl)phenyl)thiophen-2-yl)-1H-pyrazol-3-yl)propan-2-ol]
CC(C)(O)c1nn(-c2ccccc2F)c(-c2ccc(-c3cccc(S(C)(=O)=O)c3)s2)c1Cl [Example 23]
CC(=O)c1cc(-c2ccc(-c3cccc(S(C)(=O)=O)c3)s2)n(-c2ccccc2)n1 [Example 1268, 1-(5-{5-[3-(methylsulfonyl)phenyl]-2-thienyl}-1-phenyl-1H-pyrazol-3-yl)ethanone]
Cc1cc(-c2cccc(S(C)(=O)=O)c2)ccc1-c1cc(C(C)(C)O)nn1-c1c(Cl)cccc1Cl [Example 147, 2-(1-(2,6-dichlorophenyl)-5-(3-methyl-3′-(methylsulfonyl)biphenyl-4-yl)-1H-pyrazol-3-yl)propan-2-ol]
CN(C)C(C)(C)c1cc(-c2ccc(-c3cccc(S(C)(=O)=O)c3)s2)n(-c2ccccc2Cl)n1 [Example 1172, 2-[1-(2-chlorophenyl)-5-{5-[3-(methylsulfonyl)phenyl]-2-thienyl}-1H-pyrazol-3-yl]-N,N-dimethylpropan-2-amine]
Cn1c(-c2cccc(S(C)(=O)=O)c2)ccc1-c1cc(C(C)(C)O)nn1-c1ccccc1Cl [Example 1383, 2-(1-(2-chlorophenyl)-5-(1-methyl-5-(3-(methylsulfonyl)phenyl)-1H-pyrrol-2-yl)-1H-pyrazol-3-yl)propan-2-ol]
CS(=O)(=O)c1cccc(-c2ccc(-c3cc(C(=O)NCC(F)(F)F)nn3-c3ccccc3C(F)(F)F)s2)c1 [Example 1195, 5-{5-[3-(methylsulfonyl)phenyl]-2-thienyl}-N-(2,2,2-trifluoroethyl)-1-[2-(trifluoromethyl)phenyl]-1H-pyrazole-3-carboxamide]
CC(C)(O)c1cc(-c2ccccc2C(F)(F)F)n(-c2ccc(-c3cccc(S(C)(=O)=O)c3)cc2Cl)n1 [Example 140, 2-(1-(3-chloro-3′-(methylsulfonyl)biphenyl-4-yl)-5-(2-(trifluoromethyl)phenyl)-1H-pyrazol-3-yl)propan-2-ol]

EC50, 1000 to 10000 nM:
CC(C)(O)c1cc(-c2ccc(-c3cccc(S(C)(=O)=O)c3)s2)n(-c2ccc(F)c(F)c2)n1 [Example 1267, 2-[1-(3,4-difluorophenyl)-5-{5-[3-(methylsulfonyl)phenyl]-2-thienyl}-1H-pyrazol-3-yl]propan-2-ol]
CS(=O)(=O)c1cccc(-c2ccc(-c3cc(CNc4cc[nH]c(=S)n4)nn3-c3ccccc3Cl)s2)c1 [Example 545, 4-({[1-(2-chlorophenyl)-5-{5-[3-(methylsulfonyl)phenyl]-2-thienyl}-1H-pyrazol-3-yl]methyl}amino)pyrimidine-2(1H)-thione]
CON(C)C(=O)c1cc(-c2ccc(-c3cccc(S(C)(=O)=O)c3)s2)n(-c2ncccc2C(F)(F)F)n1 [Example 1237, N-methyl-N-(methyloxy)-5-{5-[3-(methylsulfonyl)phenyl]-2-thienyl}-1-[3-(trifluoromethyl)pyridin-2-yl]-1H-pyrazole-3-carboxamide]
CN(Cc1cccnc1)C(=O)c1cc(-c2ccc(-c3cccc(S(C)(=O)=O)c3)s2)n(-c2ccccc2Cl)n1 [Example 1271, 1-(2-chlorophenyl)-N-methyl-5-{5-[3-(methylsulfonyl)phenyl]-2-thienyl}-N-(pyridin-3-ylmethyl)-1H-pyrazole-3-carboxamide]
O=C(O)Cc1ccc(F)c(-c2ccc(-c3cc(C(F)(F)F)nn3-c3ncccc3C(F)(F)F)s2)c1 [Example 1152, [4-fluoro-3-(5-{3-(trifluoromethyl)-1-[3-(trifluoromethyl)pyridin-2-yl]-1H-pyrazol-5-yl}-2-thienyl)phenyl]acetic acid]
CC(C)(N)c1cc(-c2ccc(-c3cccc(S(C)(=O)=O)c3)s2)n(-c2ccccc2Cl)n1 [Example 1151, 2-[1-(2-chlorophenyl)-5-{5-[3-(methylsulfonyl)phenyl]-2-thienyl}-1H-pyrazol-3-yl]propan-2-amine]
CC(C)(O)c1cc(-c2ccc(-c3cccc(S(C)(=O)=O)c3)s2)n(-c2cccc(F)c2)n1 [Example 1258, 2-[1-(3-fluorophenyl)-5-{5-[3-(methylsulfonyl)phenyl]-2-thienyl}-1H-pyrazol-3-yl]propan-2-ol]
CCS(=O)(=O)c1cccc(-c2ccc(-c3cc(C(C)(C)O)nn3-c3ccccc3Cl)s2)c1 [Example 1316, 2-[1-(2-chlorophenyl)-5-{5-[3-(ethylsulfonyl)phenyl]-2-thienyl}-1H-pyrazol-3-yl]propan-2-ol]
CC(C)(O)c1nn(-c2cnccc2C(F)(F)F)c(-c2ccc(-c3cccc(S(C)(=O)=O)c3)cc2)c1Cl [Example 109, 2-(4-chloro-5-(3′-(methylsulfonyl)biphenyl-4-yl)-1-(4-(trifluoromethyl)pyridin-3-yl)-1H-pyrazol-3-yl)propan-2-ol]
COC(=O)CNC(=O)c1ccc(-c2cc(C(F)(F)F)nn2-c2ccccc2Cl)cc1 [Example 1354, methyl N-({4-[1-(2-chlorophenyl)-3-(trifluoromethyl)-1H-pyrazol-5-yl]phenyl}carbonyl)glycinate]
